Laboratory results reported in PMC7377239, “Cardiovascular Effects of Polychlorinated Biphenyls and Their Major Metabolites” (Environmental Health Perspectives, 2020).
Like-named read-outs stand apart in the source and are kept apart here.

Tests used:
[1] = system: iCell endothelial cells (human iPSC-derived ECs); assay: Tube formation (tubulogenesis) assay in iCell endothelial cells, 18 h; type: cell-based; settings: Homo sapiens, Endothelial cell, iPSC-EC tube formation, 18 hr; for activity at 0.1 µM: 0.10 µM; for minimal effective concentration: top concentration 100.00 µM
Method in brief: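 Tube formation was measured by calcein AM imaging after overnight compound exposure (37°C, 0.5% DMSO vehicle) of human iPSC-derived ECs, 7,500/well, on reduced-growth-factor Geltrex in starvation medium. Vehicle-normalized data fitted to four-parameter logistic; POD set at one vehicle SD; without response, 100 μM taken as NOAEL.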

[2] = system: iCell endothelial cells (human iPSC-derived ECs); assay: High-content imaging cytotoxicity in iCell endothelial cells, 24 h; type: cell-based; settings: Homo sapiens, Endothelial cell, iPSC-EC, 24 hr; for viability at 0.1 µM / activity at 0.1 µM: 0.10 µM; for minimal effective concentration: top concentration 100.00 µM
Method in brief: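 Readouts were vehicle-normalised and fitted to a four-parameter logistic model. POD was set at one SD beyond 0.5% DMSO control means, and 100 µM was assigned when no response was seen. Cells were monolayers of iCell endothelial cells imaged after 24 h compound exposure using nuclear, mitochondrial and calcein dyes.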

[3] = 0.00 µM control = 100.00, read-out: endo.mtl.18hr
[4] = 0.00 µM control = 100.00, read-out: endo.tlps.18hr
[5] = 0.00 µM control = 100.00, read-out: endo.tta.18hr
[6] = 0.00 µM control = 100.00, read-out: endo.ttl.18hr
[7] = 0.00 µM control = 100.00, read-out: endo.cyto.24hr
[8] = 0.00 µM control = 100.00, read-out: endo.mito.24hr
[9] = 0.00 µM control = 100.00, read-out: endo.mitoint.24hr
[10] = 0.00 µM control = 100.00, read-out: endo.nma.24hr
[11] = 0.00 µM control = 100.00, read-out: endo.tc.24hrs
[12] = read-out: endo.mitoint.24hr POD

Clc1cccc(-c2cccc(Cl)c2)c1 [PCB11]
activity at 0.01 µM [1, 3]: 98.5%
activity at 0.01 µM [1, 4]: 118%
activity at 0.01 µM [1, 5]: 148%
activity at 0.01 µM [1, 6]: 143%
activity at 0.1 µM [1, 3]: 102%
activity at 0.1 µM [1, 4]: 117%
activity at 0.1 µM [1, 5]: 118%
activity at 0.1 µM [1, 6]: 116%
activity at 1 µM [1, 3]: 105%
activity at 1 µM [1, 4]: 125%
activity at 1 µM [1, 5]: 132%
activity at 1 µM [1, 6]: 126%
activity at 10 µM [1, 3]: 91.6%
activity at 10 µM [1, 4]: 140%
activity at 10 µM [1, 5]: 80.8%
activity at 10 µM [1, 6]: 80.3%
activity at 100 µM [1, 3]: 105%
activity at 100 µM [1, 4]: 114%
activity at 100 µM [1, 5]: 150%
activity at 100 µM [1, 6]: 150%
minimal effective concentration ([1]; read-out: endo.mtl.18hr POD): 100 µM
minimal effective concentration ([1]; read-out: endo.tlps.18hr POD): 100 µM
minimal effective concentration ([1]; read-out: endo.tta.18hr POD): 100 µM
minimal effective concentration ([1]; read-out: endo.ttl.18hr POD): 100 µM
viability at 0.01 µM [2, 7]: 99.3%
activity at 0.01 µM [2, 8]: 99.6%
activity at 0.01 µM [2, 9]: 100%
activity at 0.01 µM [2, 10]: 101%
viability at 0.01 µM [2, 11]: 99.3%
viability at 0.1 µM [2, 7]: 95.3%
activity at 0.1 µM [2, 8]: 96%
activity at 0.1 µM [2, 9]: 97.8%
activity at 0.1 µM [2, 10]: 102%
viability at 0.1 µM [2, 11]: 95.3%
viability at 1 µM [2, 7]: 96.6%
activity at 1 µM [2, 8]: 97%
activity at 1 µM [2, 9]: 96.1%
activity at 1 µM [2, 10]: 99.7%
viability at 1 µM [2, 11]: 96.6%
viability at 10 µM [2, 7]: 99%
activity at 10 µM [2, 8]: 99.4%
activity at 10 µM [2, 9]: 107%
activity at 10 µM [2, 10]: 100%
viability at 10 µM [2, 11]: 99%
viability at 100 µM [2, 7]: 104%
activity at 100 µM [2, 8]: 105%
activity at 100 µM [2, 9]: 92.6%
activity at 100 µM [2, 10]: 100%
viability at 100 µM [2, 11]: 104%
minimal effective concentration ([2]; read-out: endo.cyto.24hr POD): 100 µM
minimal effective concentration ([2]; read-out: endo.mito.24hr POD): 100 µM
minimal effective concentration [2, 12]: 100 µM
minimal effective concentration ([2]; read-out: endo.nma.24hr POD): 100 µM
minimal effective concentration ([2]; read-out: endo.tc.24hrs POD): 100 µM

Oc1cc(Cl)cc(-c2cccc(Cl)c2)c1 [5-OH PCB 11]
activity at 0.01 µM [1, 3]: 117%
activity at 0.01 µM [1, 4]: 105%
activity at 0.01 µM [1, 5]: 155%
activity at 0.01 µM [1, 6]: 155%
activity at 0.1 µM [1, 3]: 102%
activity at 0.1 µM [1, 4]: 110%
activity at 0.1 µM [1, 5]: 125%
activity at 0.1 µM [1, 6]: 125%
activity at 1 µM [1, 3]: 109%
activity at 1 µM [1, 4]: 124%
activity at 1 µM [1, 5]: 134%
activity at 1 µM [1, 6]: 132%
activity at 10 µM [1, 3]: 53.8%
activity at 10 µM [1, 4]: 26.9%
activity at 10 µM [1, 5]: 38.5%
activity at 10 µM [1, 6]: 37.3%
activity at 100 µM [1, 3]: 46.3%
activity at 100 µM [1, 4]: 12.3%
activity at 100 µM [1, 5]: 1.58%
activity at 100 µM [1, 6]: 2.12%
minimal effective concentration ([1]; read-out: endo.mtl.18hr POD): 5.28 µM
minimal effective concentration ([1]; read-out: endo.tlps.18hr POD): 5.71 µM
minimal effective concentration ([1]; read-out: endo.tta.18hr POD): 6.97 µM
minimal effective concentration ([1]; read-out: endo.ttl.18hr POD): 7.34 µM
viability at 0.01 µM [2, 7]: 99.9%
activity at 0.01 µM [2, 8]: 100%
activity at 0.01 µM [2, 9]: 96.8%
activity at 0.01 µM [2, 10]: 101%
viability at 0.01 µM [2, 11]: 99.9%
viability at 0.1 µM [2, 7]: 100%
activity at 0.1 µM [2, 8]: 100%
activity at 0.1 µM [2, 9]: 93.5%
activity at 0.1 µM [2, 10]: 100%
viability at 0.1 µM [2, 11]: 100%
viability at 1 µM [2, 7]: 102%
activity at 1 µM [2, 8]: 103%
activity at 1 µM [2, 9]: 92.3%
activity at 1 µM [2, 10]: 99.2%
viability at 1 µM [2, 11]: 102%
viability at 10 µM [2, 7]: 102%
activity at 10 µM [2, 8]: 103%
activity at 10 µM [2, 9]: 107%
activity at 10 µM [2, 10]: 98.6%
viability at 10 µM [2, 11]: 102%
viability at 100 µM [2, 7]: 19.9%
activity at 100 µM [2, 8]: 30.3%
activity at 100 µM [2, 9]: 62.5%
activity at 100 µM [2, 10]: 79.6%
viability at 100 µM [2, 11]: 47.2%
minimal effective concentration ([2]; read-out: endo.cyto.24hr POD): 42.3 µM
minimal effective concentration ([2]; read-out: endo.mito.24hr POD): 42.3 µM
minimal effective concentration [2, 12]: 55 µM
minimal effective concentration ([2]; read-out: endo.nma.24hr POD): 14.2 µM
minimal effective concentration ([2]; read-out: endo.tc.24hrs POD): 43.2 µM
